Reference: ChEMBL document CHEMBL3997794, “Design and synthesis of benzodiazepine analogs as isoform-selective human lysine deacetylase inhibitors” (Eur J Med Chem, 2017)

What was measured:
[1] = molecular target: T1, Protein deacetylase HDAC6 (Homo sapiens) (UniProt Q9UBN7); settings: at 30 µM
T1 sequence (whole entry): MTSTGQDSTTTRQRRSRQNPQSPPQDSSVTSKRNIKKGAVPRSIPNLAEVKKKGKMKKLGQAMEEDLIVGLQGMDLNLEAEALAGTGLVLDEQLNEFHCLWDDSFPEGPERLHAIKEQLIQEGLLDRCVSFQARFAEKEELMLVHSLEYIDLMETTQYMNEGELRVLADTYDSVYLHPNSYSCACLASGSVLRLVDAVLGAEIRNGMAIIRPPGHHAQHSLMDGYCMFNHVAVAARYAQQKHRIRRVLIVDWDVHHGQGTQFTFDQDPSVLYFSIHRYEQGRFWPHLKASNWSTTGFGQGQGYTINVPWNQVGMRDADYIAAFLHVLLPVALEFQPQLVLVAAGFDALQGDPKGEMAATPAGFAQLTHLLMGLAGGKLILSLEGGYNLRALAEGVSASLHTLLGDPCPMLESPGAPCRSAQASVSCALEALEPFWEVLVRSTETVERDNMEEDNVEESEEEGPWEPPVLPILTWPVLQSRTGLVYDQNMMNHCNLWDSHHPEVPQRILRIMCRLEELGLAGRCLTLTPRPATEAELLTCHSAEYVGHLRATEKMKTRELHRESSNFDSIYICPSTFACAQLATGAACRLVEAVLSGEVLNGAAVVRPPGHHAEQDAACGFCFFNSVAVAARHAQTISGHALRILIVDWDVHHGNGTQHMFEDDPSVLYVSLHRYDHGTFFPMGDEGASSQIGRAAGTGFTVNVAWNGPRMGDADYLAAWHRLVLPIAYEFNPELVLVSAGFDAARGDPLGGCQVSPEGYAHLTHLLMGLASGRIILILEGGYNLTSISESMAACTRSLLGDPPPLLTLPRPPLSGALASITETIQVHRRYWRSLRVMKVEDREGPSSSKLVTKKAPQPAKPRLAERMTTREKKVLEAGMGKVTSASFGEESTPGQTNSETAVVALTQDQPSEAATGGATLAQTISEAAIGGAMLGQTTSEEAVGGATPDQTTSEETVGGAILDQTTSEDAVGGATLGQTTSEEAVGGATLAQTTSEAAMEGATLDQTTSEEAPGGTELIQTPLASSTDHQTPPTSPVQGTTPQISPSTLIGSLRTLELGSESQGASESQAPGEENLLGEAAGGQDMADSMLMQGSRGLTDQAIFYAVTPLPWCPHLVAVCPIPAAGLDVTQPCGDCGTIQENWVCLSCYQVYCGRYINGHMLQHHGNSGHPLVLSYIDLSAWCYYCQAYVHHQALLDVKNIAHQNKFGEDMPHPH
Description: Inhibition of human KDAC6 at 30 uM using FITC-labeled histone H4 acetylated peptide as substrate after 60 mins by fluorescence assay relative to control

[2] = molecular target: T2, Histone deacetylase 3 (Homo sapiens, UniProt O15379); assay: Inhibition of human KDAC3 at 30 uM using FITC-labeled p53 acetylated peptide as substrate after 60 mins by fluorescence assay relative to control
[3] = molecular target: T3, Protein deacetylase HDAC6 (Homo sapiens, UniProt Q9UBN7); assay: Inhibition of human KDAC6 using FITC-labeled histone H4 acetylated peptide as substrate after 60 mins by fluorescence assay
T3 sequence (Q9UBN7 whole entry): T1 sequence (whole entry)

[4] = molecular target: T4, Histone deacetylase 8 (Homo sapiens, UniProt Q9BY41); assay: Inhibition of human KDAC8 after 60 mins by fluorescence assay
T4 sequence (Q9BY41 whole entry): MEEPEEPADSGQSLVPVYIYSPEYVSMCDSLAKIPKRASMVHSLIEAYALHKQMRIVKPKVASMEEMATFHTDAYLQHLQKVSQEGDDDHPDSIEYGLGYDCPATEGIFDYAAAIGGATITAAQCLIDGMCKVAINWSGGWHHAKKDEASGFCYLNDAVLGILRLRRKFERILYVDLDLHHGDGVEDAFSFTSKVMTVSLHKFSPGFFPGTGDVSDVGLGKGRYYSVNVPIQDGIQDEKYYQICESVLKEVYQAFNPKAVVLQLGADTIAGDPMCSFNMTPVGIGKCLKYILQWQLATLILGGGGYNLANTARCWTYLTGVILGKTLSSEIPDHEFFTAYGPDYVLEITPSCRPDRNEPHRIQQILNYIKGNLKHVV

[5] = molecular target: T5, Histone deacetylase 1 (Homo sapiens, UniProt Q13547); assay: Inhibition of human KDAC1 at 30 uM using substrate A after 60 mins by fluorescence assay relative to control
[6] = molecular target: T2, Histone deacetylase 3; assay: Inhibition of human KDAC3 using FITC-labeled p53 acetylated peptide as substrate after 60 mins by fluorescence assay
[7] = molecular target: T5, Histone deacetylase 1; assay: Inhibition of human KDAC1 using substrate A after 60 mins by fluorescence assay
[8] = molecular target: T6, Histone deacetylase 8 (Homo sapiens) (UniProt Q9BY41); assay: Inhibition of human KDAC8 at 30 uM after 60 mins by fluorescence assay relative to control
T6 sequence (whole entry): T4 sequence (Q9BY41 whole entry)

T2 sequence (O15379 whole entry): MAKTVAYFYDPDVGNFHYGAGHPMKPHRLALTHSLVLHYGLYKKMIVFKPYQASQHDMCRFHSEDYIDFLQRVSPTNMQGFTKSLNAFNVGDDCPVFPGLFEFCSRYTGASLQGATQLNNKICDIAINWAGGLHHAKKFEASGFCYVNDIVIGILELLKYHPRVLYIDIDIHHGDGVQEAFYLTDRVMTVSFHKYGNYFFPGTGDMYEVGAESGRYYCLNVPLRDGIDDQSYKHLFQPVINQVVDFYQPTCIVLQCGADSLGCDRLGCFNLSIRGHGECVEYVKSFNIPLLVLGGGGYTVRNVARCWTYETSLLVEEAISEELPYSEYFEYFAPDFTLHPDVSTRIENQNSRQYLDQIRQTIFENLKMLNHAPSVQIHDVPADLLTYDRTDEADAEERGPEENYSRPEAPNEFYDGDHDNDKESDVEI
T5 sequence (Q13547 whole entry): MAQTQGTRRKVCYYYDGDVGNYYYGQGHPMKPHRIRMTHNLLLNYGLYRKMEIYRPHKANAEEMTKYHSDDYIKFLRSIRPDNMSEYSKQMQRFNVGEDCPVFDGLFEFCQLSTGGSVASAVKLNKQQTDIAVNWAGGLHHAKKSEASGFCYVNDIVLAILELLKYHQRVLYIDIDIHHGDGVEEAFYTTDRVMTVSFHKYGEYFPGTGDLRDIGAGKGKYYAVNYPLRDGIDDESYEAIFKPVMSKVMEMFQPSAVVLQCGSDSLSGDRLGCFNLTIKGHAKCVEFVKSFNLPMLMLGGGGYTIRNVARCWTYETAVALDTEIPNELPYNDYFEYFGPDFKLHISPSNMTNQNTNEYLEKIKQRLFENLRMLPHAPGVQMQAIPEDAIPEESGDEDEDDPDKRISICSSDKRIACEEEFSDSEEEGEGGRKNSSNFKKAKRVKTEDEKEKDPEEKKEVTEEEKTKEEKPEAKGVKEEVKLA

COC(=O)CCCCN1C(=O)[C@H](Cc2cncn2C(c2ccccc2)(c2ccccc2)c2ccccc2)N=C(c2ccccc2)c2ccccc21
inhibition [1]: 5.33% | inhibition [2]: 0% | IC50 [3]: > 30 µM | IC50 [4]: > 30 µM | inhibition [5]: 4.66% | IC50 [6]: > 30 µM | IC50 [7]: > 30 µM | inhibition [8]: 12.1%

COC(=O)CCCCN1C(=O)[C@H](Cc2cc3ccccc3n2C(=O)OC(C)(C)C)N=C(c2ccccc2)c2ccccc21
inhibition [1]: 0% | inhibition [2]: 0% | IC50 [3]: > 30 µM | IC50 [4]: > 30 µM | inhibition [5]: 1.64% | IC50 [6]: > 30 µM | IC50 [7]: > 30 µM | inhibition [8]: 0%

CC(C)(C)OC(=O)C[C@@H]1N=C(c2ccccc2)c2ccccc2N(CCCCC(=O)O)C1=O
inhibition [1]: 0% | inhibition [2]: 2.62% | IC50 [3]: > 30 µM | IC50 [4]: > 30 µM | inhibition [5]: 0% | IC50 [6]: > 30 µM | IC50 [7]: > 30 µM | inhibition [8]: 0%

NC(=O)CC[C@@H]1N=C(c2ccccc2)c2ccccc2N(CCCCC(=O)NO)C1=O
inhibition [1]: 96% | inhibition [2]: 94% | IC50 [3]: 1.29 µM | IC50 [4]: > 30 µM | inhibition [5]: 64.5% | IC50 [6]: 1.94 µM | IC50 [7]: 13.9 µM | inhibition [8]: 30.8%

O=C(C[C@@H]1N=C(c2ccccc2)c2ccccc2NC1=O)NO
inhibition [1]: 0.88% | inhibition [2]: 0% | IC50 [3]: > 30 µM | IC50 [4]: > 30 µM | inhibition [5]: 9.99% | IC50 [6]: > 30 µM | IC50 [7]: > 30 µM | inhibition [8]: 12.2%

COC(=O)CCCCN1C(=O)[C@H](COC(C)(C)C)N=C(c2ccccc2)c2ccccc21
inhibition [1]: 0% | inhibition [2]: 0% | IC50 [3]: > 30 µM | IC50 [4]: > 30 µM | inhibition [5]: 0.36% | IC50 [6]: > 30 µM | IC50 [7]: > 30 µM | inhibition [8]: 5%

Cc1c(C)c(S(=O)(=O)NC(=N)NCCC[C@@H]2N=C(c3ccccc3)c3ccccc3NC2=O)c(C)c2c1OC(C)(C)C2
inhibition [1]: 0% | inhibition [2]: 0.47% | IC50 [3]: > 30 µM | IC50 [4]: > 30 µM | inhibition [5]: 8% | IC50 [6]: > 30 µM | IC50 [7]: > 30 µM | inhibition [8]: 7.99%

O=C(CC[C@@H]1N=C(c2ccccc2)c2ccccc2NC1=O)NC(c1ccccc1)(c1ccccc1)c1ccccc1
inhibition [1]: 0% | inhibition [2]: 0% | IC50 [3]: > 30 µM | IC50 [4]: > 30 µM | inhibition [5]: 7.59% | IC50 [6]: > 30 µM | IC50 [7]: > 30 µM | inhibition [8]: 0%

O=C(O)CCCCN1C(=O)[C@H](CCC(=O)NC(c2ccccc2)(c2ccccc2)c2ccccc2)N=C(c2ccccc2)c2ccccc21
inhibition [2]: 0% | IC50 [4]: > 30 µM | inhibition [5]: 3.58% | IC50 [7]: > 30 µM | inhibition [8]: 11%

CC(C)[C@@H]1N=C(c2ccccc2)c2ccccc2N(CCCCC(=O)NO)C1=O
inhibition [1]: 95.5% | inhibition [2]: 97% | IC50 [3]: 1.35 µM | IC50 [4]: 19.8 µM | inhibition [5]: 81.4% | IC50 [6]: 0.6 µM | IC50 [7]: 5.27 µM | inhibition [8]: 59.4%

CSCC[C@@H]1N=C(c2ccccc2)c2ccccc2N(CCCCC(=O)NO)C1=O
inhibition [1]: 93.1% | inhibition [2]: 98.9% | IC50 [3]: 1.7 µM | IC50 [4]: 20.3 µM | inhibition [5]: 81.6% | IC50 [6]: 0.43 µM | IC50 [7]: 6.43 µM | inhibition [8]: 57.7%

COC(=O)CCCCN1C(=O)[C@H](CCC(=O)OC(C)(C)C)N=C(c2ccccc2)c2ccccc21
inhibition [1]: 0% | inhibition [2]: 0% | IC50 [3]: > 30 µM | IC50 [4]: > 30 µM | inhibition [5]: 2.72% | IC50 [6]: > 30 µM | IC50 [7]: > 30 µM | inhibition [8]: 2.88%

O=C1Nc2ccccc2C(c2ccccc2)=N[C@H]1Cc1cn(C(c2ccccc2)(c2ccccc2)c2ccccc2)cn1
inhibition [1]: 12.3% | inhibition [2]: 0% | IC50 [3]: > 30 µM | IC50 [4]: > 30 µM | inhibition [5]: 8.26% | IC50 [6]: > 30 µM | IC50 [7]: > 30 µM | inhibition [8]: 13.4%

COC(=O)CCCCN1C(=O)[C@H](CC(=O)NC(c2ccccc2)(c2ccccc2)c2ccccc2)N=C(c2ccccc2)c2ccccc21
inhibition [2]: 5.6% | IC50 [4]: > 30 µM | inhibition [5]: 8.7% | IC50 [6]: > 30 µM | IC50 [7]: > 30 µM | inhibition [8]: 3.62%

Cc1c(C)c(S(=O)(=O)NC(=N)NCCC[C@@H]2N=C(c3ccccc3)c3ccccc3N(CCCCC(=O)O)C2=O)c(C)c2c1OC(C)(C)C2
inhibition [2]: 3.8% | IC50 [4]: > 30 µM | inhibition [5]: 4.96% | IC50 [6]: > 30 µM | IC50 [7]: > 30 µM | inhibition [8]: 10.2%

O=C(CCCCN1C(=O)[C@H](CC(=O)NC(c2ccccc2)(c2ccccc2)c2ccccc2)N=C(c2ccccc2)c2ccccc21)NO
inhibition [2]: 89.5% | IC50 [4]: > 30 µM | inhibition [5]: 43.1% | IC50 [6]: 4.31 µM | IC50 [7]: > 30 µM | inhibition [8]: 43.9%

O=C(O)CCCCN1C(=O)[C@H](CCC(=O)O)N=C(c2ccccc2)c2ccccc21
inhibition [2]: 1.47% | IC50 [4]: > 30 µM | inhibition [5]: 13.6% | IC50 [6]: > 30 µM | IC50 [7]: > 30 µM | inhibition [8]: 6.92%

O=C(O)CC[C@@H]1N=C(c2ccccc2)c2ccccc2N(CCCCC(=O)NO)C1=O
inhibition [2]: 79.8% | IC50 [4]: > 30 µM | inhibition [5]: 48.1% | IC50 [6]: 8.71 µM | IC50 [7]: > 30 µM | inhibition [8]: 29.7%

O=C(CCCCN1C(=O)[C@H](CCC(=O)NO)N=C(c2ccccc2)c2ccccc21)NO
inhibition [2]: 92.2% | IC50 [4]: 8.52 µM | inhibition [5]: 62.5% | IC50 [6]: 2.57 µM | IC50 [7]: 15 µM | inhibition [8]: 74.7%

O=C(O)CCCCN1C(=O)[C@H](CC(=O)NC(c2ccccc2)(c2ccccc2)c2ccccc2)N=C(c2ccccc2)c2ccccc21
inhibition [2]: 7.32% | IC50 [4]: > 30 µM | inhibition [5]: 8.49% | IC50 [6]: > 30 µM | IC50 [7]: > 30 µM | inhibition [8]: 11.4%

COC(=O)CCCCN1C(=O)[C@H](CCC(=O)NC(c2ccccc2)(c2ccccc2)c2ccccc2)N=C(c2ccccc2)c2ccccc21
inhibition [2]: 0% | IC50 [4]: > 30 µM | inhibition [5]: 7.24% | IC50 [6]: > 30 µM | IC50 [7]: > 30 µM | inhibition [8]: 0%

O=C(O)CCCCN1C(=O)[C@H](Cc2cncn2C(c2ccccc2)(c2ccccc2)c2ccccc2)N=C(c2ccccc2)c2ccccc21
inhibition [2]: 0% | IC50 [4]: > 30 µM | inhibition [5]: 7.49% | IC50 [6]: > 30 µM | IC50 [7]: > 30 µM | inhibition [8]: 10.4%

COC(=O)CCCCN1C(=O)[C@H](CCCNC(=N)NS(=O)(=O)c2c(C)c(C)c3c(c2C)CC(C)(C)O3)N=C(c2ccccc2)c2ccccc21
inhibition [2]: 3.33% | IC50 [4]: > 30 µM | inhibition [5]: 4.8% | IC50 [6]: > 30 µM | IC50 [7]: > 30 µM | inhibition [8]: 7.3%

N[C@H](Cc1ccc(Cl)cc1Cl)C(=O)N1Cc2ccccc2C1
IC50 [3]: > 30 µM | IC50 [4]: 1.09 µM | IC50 [6]: 20 µM | IC50 [7]: 27.4 µM

O=C(CCCCN1C(=O)[C@H](CCC(=O)NC(c2ccccc2)(c2ccccc2)c2ccccc2)N=C(c2ccccc2)c2ccccc21)NO
inhibition [2]: 99.1% | IC50 [4]: 23.5 µM | inhibition [5]: 78.7% | IC50 [6]: 0.83 µM | IC50 [7]: 9.24 µM | inhibition [8]: 53.1%
